From paper PMC7496096, “Functional Characterisation of ClpP Mutations Conferring Resistance to Acyldepsipeptide Antibiotics in Firmicutes” (Chembiochem, 2020)
≈ marks a conversion by molar mass, not a printed value.

Legend:
[1] = test system: S. aureus RC7; assay type: cell-based, Staphylococcus aureus; details: resistant clone of S. aureus ATCC 29213; ClpP Q89→STOP, premature stop
Method: (§1) Determination of antibacterial activity: ADEP1 was purified from the culture supernatant of S. hawaiiensis NRRL 15010 as described.4 ADEPs 2, 4, 7, 9 were custom synthesised by EMC Microcollections, Tübingen, or provided by AiCuris, Wuppertal, Germany. The minimal inhibitory concentration (MIC) was determined by broth microdilution in Mueller‐Hinton broth (without cation adjustment) according to the guidelines of the Clinical Laboratory Standards Institute (CLSI).69 The inoculum was set to 5×10^4 CFU mL^−1 to allow some distance to the determined spontaneous resistance frequencies. […] All other ADEPs were used from DMSO stock solutions kept at −20 °C.
(§2) Screening for ADEP‐resistant mutants and determination of resistance rates: Single colonies of wild‐type strains grown on Mueller‐Hinton agar plates overnight were suspended in sterile saline and a final inoculum of 5×10^6 cells was spread on plates supplemented with different ADEP congeners at 4× and 10× the MIC. For B. subtilis strain 3xclpP, ADEP7‐containing Mueller‐Hinton agar plates were additionally supplemented with 1 mM IPTG. Resistant colonies were counted after 24 h at 37 °C and colonies were randomly chosen for MIC determinations and sequencing. Mutations in the clpP gene of the respective isolated mutants were analysed by amplifying the clpP gene (and upstream promoter region) by PCR and sequencing of the resulting PCR amplicons (LGC genomics). Sequencing data were analysed by using SnapGene software (GSL Biotech).

[2] = test system: S. aureus RC11; assay type: cell-based, Staphylococcus aureus; details: resistant clone of S. aureus ATCC 29213; ClpP Q82→P (ClpP core; α3)
Method: as §1, §2

[3] = test system: S. aureus RC17; assay type: cell-based, Staphylococcus aureus; details: resistant clone of S. aureus ATCC 29213; ClpP A133→V, ring-ring interaction
Method: as §1, §2

[4] = test system: S. aureus RC1; assay type: cell-based, Staphylococcus aureus; details: resistant clone of S. aureus 133; ClpP Q132→H, oligomerisation sensor
Method: as §1, §2

[5] = test system: S. aureus RC14; assay type: cell-based, Staphylococcus aureus; details: resistant clone of S. aureus ATCC 29213; ClpP I91→T; A96→V (ClpP core; β3, β4)
Method: as §1, §2

[6] = test system: S. aureus RC12; assay type: cell-based, Staphylococcus aureus; details: resistant clone of S. aureus ATCC 29213; ClpP E9→V, N-terminal gate
Method: as §1, §2

[7] = test system: S. aureus RC13; assay type: cell-based, Staphylococcus aureus; details: resistant clone of S. aureus ATCC 29213; ClpP G68→V (ClpP core)
Method: as §1, §2

[8] = test system: S. aureus RC9; assay type: cell-based, Staphylococcus aureus; details: resistant clone of S. aureus ATCC 29213; ClpP H123→R, active site
Method: as §1, §2

[9] = test system: S. aureus RC5; assay type: cell-based, Staphylococcus aureus; details: resistant clone of S. aureus 133; ClpP A133→V, ring-ring interaction
Method: as §1, §2

[10] = test system: S. aureus RC2; assay type: cell-based, Staphylococcus aureus; details: resistant clone of S. aureus 133; ClpP M190→T, ADEP binding site
Method: as §1, §2

[11] = test system: S. aureus RC4; assay type: cell-based, Staphylococcus aureus; details: resistant clone of S. aureus 133; ClpP N173→D, ring-ring interaction
Method: as §1, §2

[12] = test system: S. aureus RC10; assay type: cell-based, Staphylococcus aureus; details: resistant clone of S. aureus ATCC 29213; ClpP I165→M (equatorial interface; α6)
Method: as §1, §2

[13] = test system: S. aureus RC8; assay type: cell-based, Staphylococcus aureus; details: resistant clone of S. aureus ATCC 29213; Δ107 nt, C-terminal truncation
Method: as §1, §2

[14] = test system: wild-type SaClpP; experiment: FITC-casein degradation by ADEP-activated ClpP; assay type: biochemical, Staphylococcus aureus; details: 1 μM SaClpP, 20 μM FITC-casein, 32 °C; Figure 6D
Method: Peptide and protein degradation assays: Degradation assays with the fluorogenic peptide substrate Suc‐Leu‐Tyr‐7‐amino‐4‐methylcoumarin (Suc‐LY‐AMC) were performed in either BsClpP (50 mM Tris‐HCl, 25 mM MgCl2, 200 mM KCl, 2 mM DTT, pH 8) or SaClpP activity buffer (100 mM HEPES pH 7, 100 mM NaCl) in black, flat‐bottom‐96‐well plates (Sarstedt) with a total reaction volume of 100 μl and reaction temperatures of 32 °C and 37 °C for SaClpP and BsClpP, respectively. Purified ClpP proteins (final concentrations as indicated in the respective experiments) and ADEP2 (applied in 1 μl from a DMSO stock solution) were mixed and pre‐incubated for 15 min at reaction temperatures. […] Fluorophore release upon peptide hydrolysis was read out in a Tecan Infinite M200Pro plate reader (excitation/emission: 380/460 nm) every 30–60 s for 1 h. […] SaClpP (1 μM) and ADEP2 (concentrations as indicated) were pre‐incubated at 32 °C for 15 min before initiating the reaction by addition of FITC – casein (20 μM final concentration) and fluorescence readout (excitation/emission: 485/535 nm). In both assays, enzyme velocity was determined by linear regression of the initial segment of the fluorescence‐time plot in GraphPad Prism 5. […] Decrease of fluorescence was monitored at an emission wavelength of 535 nm in white, flat‐bottom 96‐well‐plates (Greiner). […]

SMILES: C[C@@H]1C[C@H]2C(=O)OC[C@H](NC(=O)[C@H](Cc3cc(F)cc(F)c3)NC(=O)CCC3CCCCC3)C(=O)N3CCC[C@H]3C(=O)N3CCCC[C@H]3C(=O)N[C@@H](C)C(=O)N2C1 [ADEP2]
- MIC [1]: >64 µg/mL
- MIC [2]: >64 µg/mL
- MIC [3]: >64 µg/mL
- MIC [4]: 8 µg/mL (≈ 10 µM)
- MIC [5]: >64 µg/mL
- MIC [6]: >64 µg/mL
- MIC [7]: >64 µg/mL
- MIC [8]: >64 µg/mL
- MIC [9]: >64 µg/mL
- MIC [10]: 2 µg/mL (≈ 2.5 µM)
- MIC [11]: >64 µg/mL
- MIC [12]: >64 µg/mL
- MIC [13]: >64 µg/mL
- concentration sufficient for an almost maximal casein degradation rate [14]: 3 µM
